Data from article PMC8400257, “2-Phenoxy-3-Trichloromethylquinoxalines Are Antiplasmodial Derivatives with Activity against the Apicoplast of Plasmodium falciparum” (Pharmaceuticals, 2021).
Read-outs that look alike come from different tables or passages of the source. One block for each compound: values may come before it.

What was measured:
[1] = test system: P. falciparum ART-resistant strain F32-ART5; assay: Standard in vitro chemo-sensitivity assay, F32-ART5; assay type: cell-based; conditions: Plasmodium falciparum, F32, 48 h, read-out: Mean ± SEM EC50 values F32-ART5
Protocol: (§1) The Plasmodium falciparum ART-resistant strain F32-ART5 and its tween ART-sensitive strain F32-TEM [33, 41] were cultivated at 37 °C with 5% CO2 in human red blood cells (EFS, French Blood Bank) diluted to 2% hematocrit in RPMI-1640 medium (Biowest, Nuaillé, France) supplemented with 5% human serum (EFS, French Blood Bank), as previously reported.
(§2) The chemosensitivity assay was carried out in 96-well culture plates on synchronized ring-stage parasites at 1% parasitemia obtained after D-sorbitol treatment. The antiplasmodial activities were evaluated using the SYBR Green I method. Parasites were exposed for 48 h to a range of concentrations of the different tested compounds. Each drug concentration was tested in triplicates. Parasite pellets were then washed in 1× PBS prior to lysing red blood cells at −20 °C overnight. Then, the plates were thawed and 100 µL of each well were transferred into a black 96-well plate. Next, 100 µL per well of SYBR Green I (Thermo Fisher) diluted at a final concentration of 2× in lysis buffer (20 mM Tris base pH 7.5, 5 mM EDTA, 0.008% w/v saponin, 0.08% w/v Triton X-100) were added and left to incubate for 1 h at room temperature prior to reading the plates on BioTek FLx800 Microplate Fluorescence Reader (λexcitation = 485 nm, λemission = 528 nm). Relative EC50 values were determined using GraphPad Prism software.

[2] = test system: P. falciparum ART-sensitive strain F32-TEM; assay: Standard in vitro chemo-sensitivity assay, F32-TEM; assay type: cell-based; conditions: Plasmodium falciparum, F32, 48 h, read-out: Mean ± SEM EC50 values F32-TEM
Protocol: as §1, §2

[3] = test system: F32-ART5 and F32-TEM parasites; assay: Recrudescence assay; assay type: cell-based, Plasmodium falciparum; conditions: 48 h exposure; 2.5 µM 3i or 18 µM ART; log-rank Mantel-Cox test
Protocol: Recrudescence assay was performed to evaluate the ability of the F32-ART5 parasites to survive drug exposure comparatively to the F32-TEM parasites. D-sorbitol synchronized ring-stages at 3% parasitemia (2% hematocrit) were exposed to drug for 48 h. After drug exposure, parasite cultures were washed with RPMI-1640 medium and replaced in normal drug-free culture conditions. The time to parasite recrudescence was determined as the time required to reach the 3% initial parasitemia. […] Each experiment was performed for F32-ART5 and F32-TEM and cultivated in parallel in the same conditions to generate paired results. This was carried out at least three times independently. A statistical analysis (log-rank Mantel–Cox test) was carried out on data thanks to a Kaplan–Meier survival analysis (using GraphPad Prism software) considering censored data.
Figure S48. 13C NMR spectrum of 2i in CDCl3, on a Bruker ARX 101 spectrometer
2. […]
3. Studying the effect of (3i) on the liver stage development of P. falciparum Cryopreserved primary human hepatocytes were seeded in 96 well plates with a pre-determined seeding dose that gave a single dense layer of attached hepatocytes. […]
The culture medium with or without drugs was refreshed every 48 hours and two independent plates were studied. […] Plates were subjected to quantification using an automated plate scanner. […]

[4] = test system: K1 chloroquine and pyrimethamine-resistant P. falciparum strain; assay: In vitro antiplasmodial evaluation (SYBR Green I); assay type: cell-based, Plasmodium falciparum; conditions: K1 strain, 72 h incubation, three independent experiments, read-out: EC50 PfK1 (µM) ± SD
Protocol: For all molecules, the selectivity index was calculated as following SI = CC50/EC50.
It was maintained in continuous culture, as described previously by Trager and Jensen. Cultures were maintained in fresh A+ human erythrocytes at 2.5% hematocrit in complete medium (RPMI 1640 with 25 mM HEPES, 25 mM NaHCO3, 10% of A+ human serum) at 37 °C under reduced O2 atmosphere (gas mixture 10% O2, 5% CO2, and 85% N2). Parasitemia was maintained daily between 1 and 3%. The P. falciparum drug susceptibility test was carried out by comparing quantities of DNA in treated and control cultures of parasite in human erythrocytes according to an SYBR Green I fluorescence-based method using a 96-well fluorescence plate reader. Compounds, previously dissolved in DMSO (final concentration less than 0.5% v/v), were incubated in a total assay volume of 200 μL (RPMI, 2% hematocrit and 0.4% parasitemia) for 72 h in a humidified atmosphere (10% O2 and 5% CO2) at 37 °C, in 96-well flat bottom plates. Duplicate assays were performed for each sample. After incubation, plates were frozen at […] for 24 h. Then, the frozen plates were thawed for 1 h at 37 °C. Fifteen µL of each sample were transferred to 96-well flat bottom non-sterile black plates (Greiner Bio-one, Kremsmünster, Austria), already containing 15 µL of the SYBR Green I lysis buffer (2X SYBR Green I, 20 mM Tris base pH 7.5, 20 mM EDTA, 0.008% w/v saponin, 0.08% w/v Triton X-100). […] Plates were incubated for 15 min at 37 °C and then read on a TECAN Infinite F-200 spectrophotometer with excitation and emission wavelengths at 485 and 535 nm, respectively.

P. falciparum apicoplast = assay: Immunofluorescence assay of apicoplast biogenesis on treated blood-stage parasites; assay type: cell-based, Plasmodium falciparum; conditions: 48 h, 0.2 µM
Protocol: (§3) To determine the impact of (3i) on apicoplast biogenesis, parasites were treated for 48 h with 0.2 µM of (3i) or 0.2 µM of (2i) (a control of (3i) for which the active CCl3 was replaced by a methyl CH3 group) and compared to untreated parasites by immunofluorescence assay. […] In order to determine if the apicoplast is the main target of (3i), we performed a growth assay over three life cycles to assess a potential delayed death effect, one of the major signature for compounds affecting apicoplast. […] The second interpretation could be that, unlike chloramphenicol or doxycycline, which cause a delayed death phenotype on Plasmodium, (3i) could act like fosmidomycin or actinonin and cause a rapid death phenotype.
Plasmodium falciparum blood stage parasites were maintained at 2% hematocrit in 1640 RPMI-HEPES, supplemented with 5% AlbuMAX II (GIBCO) and 0.25% gentamycin. Parasites were grown sealed Perspex chambers gassed with beta mix gas (1% O2, 5% CO2 and 94% N2) at 37 °C and maintained on 48-h cycles. Cultures were tightly synchronized at ring stage using sorbitol treatment (5% v/v) as previously described.
Prior to the treatment, parasites were synchronized using 5% sorbitol. After 48 h treatment ([…] or DMSO) parasites were fixed using 4% paraformaldehyde (PFA) and 0.0075% glutaraldehyde for 30 min at room temperature. […]

[5] = test system: Plasmodium falciparum blood stage parasites; assay: Growth assay over three life cycles (delayed death); assay type: cell-based; conditions: 0.2 µM; 48, 96, 144 h
Protocol: as §3
To observe a potential effect of delayed death of the molecule on the parasite, Plasmodium was maintained on three life cycles (48 h). […] Fluorescence from each well was measured with TECAN infinite M200 plate reader (excitation: 485 nm, emission: 538 nm and integration time: 1000 μs). […] A graph was obtained by performing the ration of the treated culture fluorescence intensity on the untreated culture fluorescence intensity (n = 3).

[6] = test system: Pf3D7 (3D7 chloroquine-sensitive strain); conditions: Figure 2; cited from earlier work
[7] = test system: PfFCR-3 (FCR-3 multidrug-resistant strain); set-up: method as in PMID 28291694; conditions: Figure 2; cited from earlier work
HepG2 = conditions: Figure 2; cited from earlier work

SMILES: C[C@@H]1CC[C@H]2[C@@H](C)C(=O)O[C@@H]3O[C@@]4(C)CC[C@@H]1[C@]32OO4 [Artemisinin, reference compound]
EC50 [1]: 11 ± 3 nM
EC50 [2]: 19 ± 3 nM
Recrudescence of F32-ART5 compared with F32-TEM after drug exposure [3]: significant faster

EC50 [4]: > 16 µM
EC50 ([4]; Plasmodium falciparum, K1, 72 h): > 25 µM
SMILES: Cc1nc2ccccc2nc1Oc1ccc([N+](=O)[O-])cc1 [2i, 2-Methyl-3-(4-nitrophenoxy)quinoxaline]
Effect on apicoplast biogenesis (immunofluorescence) (P. falciparum apicoplast): absence of effect
Parasite growth over three life cycles (ratio treated/untreated) [5]: absence of effect

SMILES: Cc1c(/C=N/Nc2ccnc3cc(Cl)ccc23)[n+]([O-])c2cc(Cl)ccc2[n+]1[O-] [QdNO 19]
EC50 [6]: 240 nM
EC50 [7]: 2800 nM
CC50 (HepG2): > 241000 nM
